Measurements taken from patent US20130184302A1, “METHODS FOR TREATING IRRITABLE BOWEL SYNDROME (IBS) AND INFECTIONS” (priority 2011, published 2013).

What was measured:
Format in all cases: in vivo, human
subjects with IBS [1] = assay: Sustained response and recurrence of symptoms after Primary Evaluation Period, rolling 4 weeks; conditions: Rolling 9-12 Weeks; Rifaximin (N = 624)
Experimental: An evaluation of the enrolled subjects was carried out after the Primary Evaluation Period in the study described in Examples 5-7. […] Subjects with no recurrence are defined as having a stool consistency score of less than 4, abdominal pain reduced by at least 30 percent or both.

subjects with IBS [2] = assay: Analysis of two studies after 3 months: global IBS symptoms, abdominal pain, bloating responders; conditions: for Responders: Abdominal pain reduction of 1 point in median: at least 2 weeks during PEP; for Global IBS symptoms: at least 2 out of 4 weeks adequate relief during weeks 3 through 6 (weekly question): 550 mg TID 14 days
From the text: A measure of efficacy is based on subjects' answers to the Weekly Subject Global Assessment (SGA) questions over the study duration in relation to their IBS symptoms.
The study endpoints of the studies were Global IBS symptoms and AUC in abdominal pain during the study.
The primary and secondary endpoints evaluated in this study were the effect of treatment on the percentage of subjects who reported adequate relief of Global IBS symptoms, reduction in abdominal pain and the adequate relief of IBS symptom of bloating.

[3] = test system: C. difficile infection (CDI); assay: CDI trial rifaximin 400 mg TID vs vancomycin 125 mg QID: clinical success at Test of Cure
Experimental: Criteria for entry into the trial were: • Age>=18 years old; • Had acute diarrhea at screening defined as >=3 unformed stools in the last 24 hours and at least one sign of enteric infection (fever, nausea, lose of appetite, vomiting, severe abdominal pain/discomfort); and • a positive C. diff stool toxin assay
The primary efficacy endpoint of the study was defined as the proportion of subjects achieving clinical success. Specifically, clinical success was defined as the absence of severe abdominal pain at Test of Cure (TOC), absence of fever (<38° C.) at TOC, and <3 unformed stools for two consecutive days at TOC.
The non-inferiority margin for the primary endpoint was defined as lower bound of 95% CI of delta above −15%.
Clinical success was defined as the: Absence of severe abdominal pain at TOC, absence of fever (<38° C.) at TOC, and <3 unformed stools for two consecutive days at TOC. Test of cure defined as Day 14+/−1 day.

[4] = at TOC (Day 14+/−1), Rifaximin N = 117, Vancomycin N = 115

For `CO[C@H]1/C=C/O[C@@]2(C)Oc3c(C)c(O)c4c(O)c(c5c(nc6cc(C)ccn65)c4c3C2=O)NC(=O)/C(C)=C\C=C\[C@H](C)[C@H](O)[C@@H](C)[C@@H](O)[C@@H](C)[C@H](OC(C)=O)[C@@H]1C` [Rifaximin, (2S,16Z,18E,20S,21S,22R, 23R,24R,25S,26S,27S,28E)-5,6,21,23,25 Pentahydroxy-27-methoxy-2,4,11,16,20,22,24,26-octamethyl-2,7-(epoxypentadeca-(1,11,13)trienimino) benzofuro (4,5-e) pyrido(1,2,-a) benzimidazole-1,15(2H)-dione,25-acetate], the “Abdominal Pain & Stool Consistency: No Recurrence” value (subjects with IBS [1]) was “(35.1%)”, the “Abdominal Pain & Stool Consistency: Recurrence” value (subjects with IBS [1]) was “(1.9%)” and the “Abdominal Pain: No Recurrence” value (subjects with IBS [1]) was “(38.0%)”. For the same compound, the “Abdominal Pain: Recurrence” value (subjects with IBS [1]) was “(2.2%)”, the “Stool Consistency: No Recurrence” value (subjects with IBS [1]) was “(71.0%)” and the “Stool Consistency: Recurrence” value (subjects with IBS [1]) was “(2.1%)”. For the same compound, the “IBS symptom of Bloating: at least 2 out of 4 weeks adequate relief during weeks 3 through 6” value (“IBS symptom of Bloating” for short) (subjects with IBS [2]; Combined) was 30% vs 40%, the “Responders: Abdominal Pain reduction of 2 point in mean” value (subjects with IBS [2]; Combined) was 18% vs 25% and the “Responders: Abdominal Pain reduction of 2 point in median” value (subjects with IBS [2]; Combined) was 32% vs 39%. The “Responders: Abdominal Pain reduction of 3 point in mean” value (subjects with IBS [2]; Combined) was 6% vs 7%, the “Responders: Abdominal Pain reduction of 3 point in median” value (subjects with IBS [2]; Combined) was 18% vs 21% and the “Responders: Abdominal pain reduction of 1 point in mean” value (subjects with IBS [2]; Combined) was 42% vs 52%. For the same compound, the “Responders: Daily abdominal pain <2” value (subjects with IBS [2]; Combined) was 31% vs 39%, the “Responders: Overall reduction of mean weekly abdominal pain by > = 25%” value (subjects with IBS [2]; Combined) was 47% vs 57% and the “Responders: Overall reduction of mean weekly abdominal pain by > = 50%” value (subjects with IBS [2]; Combined) was 28% vs 35%. The “Responders: Overall reduction of mean weekly abdominal pain by > = 75%” value (subjects with IBS [2]; Combined) was 11% vs 14%, the “Responders: Overall reduction of median weekly abdominal pain by > = 25%” value (subjects with IBS [2]; Combined) was 52% vs 62% and the “Responders: Overall reduction of median weekly abdominal pain by > = 50%” value (subjects with IBS [2]; Combined) was 34% vs 44%. For the same compound, the “Responders: Overall reduction of median weekly abdominal pain by > = 75%” value (subjects with IBS [2]; Combined) was 18% vs 21%, the “Responders: Abdominal pain reduction of 1 point in median” value (subjects with IBS [2]; Combined) was 53% vs 63% and the “IBS symptom of Bloating” value (subjects with IBS [2]; Study 2) was 32% vs 41%. The “Responders: Abdominal Pain reduction of 2 point in mean” value (subjects with IBS [2]; Study 2) was 18% vs 25%, the “Responders: Abdominal Pain reduction of 2 point in median” value (subjects with IBS [2]; Study 2) was 30% vs 41% and the “Responders: Abdominal Pain reduction of 3 point in mean” value (subjects with IBS [2]; Study 2) was 6% vs 7%. The “Responders: Abdominal Pain reduction of 3 point in median” value (subjects with IBS [2]; Study 2) was 17% vs 21%, the “Responders: Abdominal pain reduction of 1 point in mean” value (subjects with IBS [2]; Study 2) was 43% vs 52% and the “Responders: Daily abdominal pain <2” value (subjects with IBS [2]; Study 2) was 31% vs 39%. The “Responders: Overall reduction of mean weekly abdominal pain by > = 25%” value (subjects with IBS [2]; Study 2) was 47% vs 58%, the “Responders: Overall reduction of mean weekly abdominal pain by > = 50%” value (subjects with IBS [2]; Study 2) was 29% vs 35% and the “Responders: Overall reduction of mean weekly abdominal pain by > = 75%” value (subjects with IBS [2]; Study 2) was 11% vs 14%. The “Responders: Overall reduction of median weekly abdominal pain by > = 25%” value (subjects with IBS [2]; Study 2) was 52% vs 62%, the “Responders: Overall reduction of median weekly abdominal pain by > = 50%” value (subjects with IBS [2]; Study 2) was 35% vs 44% and the “Responders: Overall reduction of median weekly abdominal pain by > = 75%” value (subjects with IBS [2]; Study 2) was 17% vs 20%. For the same compound, the “Responders: Abdominal pain reduction of 1 point in median” value (subjects with IBS [2]; Study 2) was 53% vs 62%, the “IBS symptom of Bloating” value (subjects with IBS [2]; Study [1]) was 29% vs 40% and the “Responders: Abdominal Pain reduction of 2 point in mean” value (subjects with IBS [2]; Study [1]) was 18% vs 26%. The “Responders: Abdominal Pain reduction of 2 point in median” value (subjects with IBS [2]; Study [1]) was 33% vs 37%, the “Responders: Abdominal Pain reduction of 3 point in mean” value (subjects with IBS [2]; Study [1]) was 6% vs 7% and the “Responders: Abdominal Pain reduction of 3 point in median” value (subjects with IBS [2]; Study [1]) was 19% vs 22%. The “Responders: Abdominal pain reduction of 1 point in mean” value (subjects with IBS [2]; Study [1]) was 41% vs 52%, the “Responders: Overall reduction of mean weekly abdominal pain by > = 25%” value (subjects with IBS [2]; Study [1]) was 47% vs 56% and the “Responders: Overall reduction of mean weekly abdominal pain by > = 50%” value (subjects with IBS [2]; Study [1]) was 28% vs 36%. For the same compound, the “Responders: Overall reduction of mean weekly abdominal pain by > = 75%” value (subjects with IBS [2]; Study [1]) was 10% vs 14%, the “Responders: Overall reduction of median weekly abdominal pain by > = 25%” value (subjects with IBS [2]; Study [1]) was 52% vs 63% and the “Responders: Overall reduction of median weekly abdominal pain by > = 50%” value (subjects with IBS [2]; Study [1]) was 34% vs 44%. The “Responders: Overall reduction of median weekly abdominal pain by > = 75%” value (subjects with IBS [2]; Study [1]) was 19% vs 23%, the “Responders: Abdominal pain reduction of 1 point in median” value (subjects with IBS [2]; Study [1]) was 52% vs 63% and the “Responders: Daily abdominal pain <2” value (subjects with IBS [2]; Study [1], at least 50% of days in a week for at least 2 weeks during PEP) was 32% vs 40%. The “Global IBS symptoms: at least 2 out of 4 weeks adequate relief during weeks 3 through 6 (weekly question)” value (“Global IBS symptoms: at least 2 out” below) (subjects with IBS [2]; first column (Study 1), second figure of 'x vs y') was 41%, the “Global IBS symptoms: at least 2 out” value (subjects with IBS [2]; second column (Study 2)) was 41% and the “Global IBS symptoms: at least 2 out” value (subjects with IBS [2]; third column (Combined)) was 41%. For the same compound, the “Clinical Success: Treatment Difference” value ([3]; Rifaximin vs Vancomycin, at TOC) was −6.2%, the “Clinical Success: Yes, number of subjects” value ([3]; at TOC (Day 14+/−1), Rifaximin 400 mg TID N = 117, Vancomycin 125 mg QID N = 115) was 67 and the “Clinical Success: No, number of subjects” value [3, 4] was 50. For the same compound, the “Clinical Success: No, percent of subjects” value [3, 4] was “(43%)” and the “Clinical Success: Yes, percent of subjects” value [3, 4] was “(57%)”.
